Source: ChEMBL document CHEMBL3137667, “[Drug-induced liver injury; fourteenth updated edition of the bibliographic database of liver injuries and related drugs]” (Gastroenterol Clin Biol, 2004)

Tests used:
[1] = Highest frequency of moderate liver toxicity observed during clinical trials, expressed as a percentage. [column '% BIOL' in source]; details: human
[2] = Times to onset, minimal and maximal, observed in the indexed observations. [column 'DELAI' in source]; details: human
[3] = Proposed mechanism(s) of liver damage. [column 'MEC' in source]; details: human
[4] = human, serum
[5] = human
[6] = human; remark: listed apart in the source
[7] = human; remark: listed apart in the source
[8] = human, serum, 4383 h
[9] = human; remark: listed apart in the source
[10] = human; remark: listed apart in the source
[11] = human; remark: listed apart in the source
[12] = human; remark: listed apart in the source
[13] = human; remark: listed apart in the source
[14] = human; remark: listed apart in the source
[15] = Highest frequency of acute liver toxicity observed during clinical trials, expressed as a percentage. [column '% AIGUE' in source]; details: human
[16] = human, serum; remark: listed apart in the source
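For Hepatotoxicity (association with vascular disease) in this document: count of indexed literature references reporting vascular liver injury in humans, e.g. peliosis hepatitis, hepatic veno-occlusive disease or Budd-Chiari syndrome.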
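For Hepatotoxicity (benign tumour) in this document: value is a count of indexed literature references citing a benign tumour confirmed by histopathology.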
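For Hepatotoxicity (choleostasis) in this document: human cholestatic liver injury, shown by histopathology or by peak ALT or AST elevation over alkaline phosphatase ratio below 2, value counts indexed literature reports.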
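For Hepatotoxicity (chronic liver disease) in this document: chronic liver injury confirmed by histopathology or persistently raised serum aminotransferase activity beyond 6 months, value given as the count of indexed literature references.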
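For Hepatotoxicity (cirrhosis) in this document: value is a count of indexed literature references reporting cirrhosis confirmed by histopathology.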
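For Hepatotoxicity (cytolytic) in this document: human cytolytic liver injury, shown by histopathology or by a ratio above 5 of peak ALT or AST elevation to alkaline phosphatase elevation, value counts indexed references.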
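For Hepatotoxicity (granulomatous hepatitis) in this document: value is a count of indexed literature references reporting granulomatous liver disease confirmed by histopathology.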
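For Hepatotoxicity (malignant tumour) in this document: malignant tumour confirmed by histopathology, value gives the count of indexed literature references reporting it.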
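For Hepatotoxicity (severe hepatitis) in this document: human clinical data: severe hepatitis, meaning potentially life-threatening liver failure or clinically observed cases, the value counts how many indexed literature references report it.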
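For Hepatotoxicity (steatosis) in this document: steatosis confirmed by histopathology, value is the count of indexed references.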

Compound	Hepatotoxicity (moderate) [1] [%]	Hepatotoxicity (mechanism) [3]	Hepatotoxicity (moderate) [4]	Hepatotoxicity (cytolytic) [5]	Hepatotoxicity (choleostasis) [6]	Hepatotoxicity (severe hepatitis) [7]	Hepatotoxicity (chronic liver disease) [8]	Hepatotoxicity (cirrhosis) [9]	Hepatotoxicity (granulomatous hepatitis) [10]	Hepatotoxicity (association with vascular disease) [11]	Hepatotoxicity (steatosis) [12]	Hepatotoxicity (malignant tumour) [13]	Hepatotoxicity (benign tumour) [14]	Hepatotoxicity (acute) [15] [%]	Hepatotoxicity (acute) [16]	other results
CC(C)(O)c1ccccc1CC[C@@H](SCC1(CC(=O)O)CC1)c1cccc(/C=C/c2ccc3ccc(Cl)cc3n2)c1 [MONTELUKAST]	13.9	Allergic	3	2	2	0	0	0	0	0	0	0	0	–	–	Hepatotoxicity (time to onset) [2]: 3 days - 2 years
COc1c(N2C[C@@H]3CCCN[C@@H]3C2)c(F)cc2c(=O)c(C(=O)O)cn(C3CC3)c12 [MOXIFLOXACIN]	–	Dose-dependant	3	0	1	–	0	0	0	0	0	0	0	–	–	Hepatotoxicity (moderate) ([1]; Liver): 6.9%; Hepatotoxicity (time to onset) [2]: 26 days; Hepatotoxicity (severe hepatitis) ([7]; Liver): 0
CCn1cc(C(=O)O)c(=O)c2ccc(C)nc21 [NALIDIXIC ACID]	0	Allergic	2	1	2	0	0	0	0	0	0	0	0	0	–	Hepatotoxicity (time to onset) [2]: 2 weeks
[H]/N=C(/N)N[C@H]1[C@H](O)[C@@H](O)[C@H](O[C@@H]2O[C@@H](C)[C@](O)(C=O)[C@H]2O[C@@H]2O[C@@H](CO)[C@H](O)[C@@H](O)[C@@H]2NC)[C@@H](N/C(N)=N\[H])[C@@H]1O [STREPTOMYCIN]	–	–	1	–	–	–	0	0	–	0	0	0	0	–	4	Hepatotoxicity (moderate) ([1]; Liver): 0%; Hepatotoxicity (acute) ([15]; Liver): 0%; Hepatotoxicity (mechanism) ([3]; Liver): Allergic; Hepatotoxicity (cytolytic) ([5]; Liver): 2; Hepatotoxicity (choleostasis) ([6]; Liver): 1; Hepatotoxicity (severe hepatitis) ([7]; Liver): 0; Hepatotoxicity (granulomatous hepatitis) ([10]; Liver): 0
CC1(C)S[C@@H]2[C@H](NC(=O)C(c3ccccc3)S(=O)(=O)O)C(=O)N2[C@H]1C(=O)O (stereo partly drawn) [SULBENICILLIN]	6.7	Allergic	3	0	2	0	0	0	0	0	0	0	0	1	3	–
CNCCNc1ccc2c3c(nn2CCNCCO)-c2c(O)ccc(O)c2C(=O)c13 [TELOXANTRONE]	36.8	Dose-dependant	2	1	1	0	0	0	0	0	0	0	0	10.5	1	–
CS(=O)(=O)c1ccc([C@@H](O)[C@@H](CO)NC(=O)C(Cl)Cl)cc1 [THIAMPHENICOL]	0	Allergic	0	0	0	0	0	0	0	0	0	0	0	0	1	–
O=C(Cn1c(=O)sc2ccc(Cl)cc21)N1CCN(CCO)CC1 [TIARAMIDE]	0	Allergic	0	1	1	0	0	0	0	0	0	0	0	0	1	–
CCOC(=O)c1c(N)sc2c1CCN(Cc1ccccc1)C2 [TINORIDINE]	0	Allergic	1	0	0	0	0	0	0	0	0	0	0	0	1	–
O[C@H]1[C@H]2[C@H](O)CCCN2C[C@H]1O [TRIDOLGOSIR]	52.6	Dose-dependant	2	0	0	0	0	0	0	0	0	0	0	10.5	1	–
CN1[C@@H]2CC[C@H]1C[C@@H](OC(=O)c1c[nH]c3ccccc13)C2 [TROPISETRON]	40.9	Dose-dependant	3	1	0	0	0	0	0	0	0	0	0	4.5	1	–
INTERFERON ALFA-N1	42	Dose-dependant	15	0	0	0	0	0	0	0	0	0	0	0	0	–
INTERLEUKIN 6	55	Dose-dependant	9	0	1	0	0	0	0	0	0	0	0	0	2	–
PEGASPARGASE	0	Dose-dependant	0	0	0	0	0	0	0	0	0	0	0	7.7	2	–
PEGLOTICASE	3.7	Dose-dependant	1	0	0	0	0	0	0	0	0	0	0	0	0	–
